The supplement of paper PMC13380429

Tests used:
Conditions in all cases: 72 h
Caco-2 [1] = experiment: cell viability relative to DMSO; higher = less toxic
Calu-3 [2] = experiment: as above
HepG2 [3] = experiment: as above
U2OS [4] = experiment: as above
Vero E6 [5] = experiment: as above
Caco-2 [6] = experiment: relative viability EC50 (midpoint between 100% and the lowest measured viability); higher = less toxic
Calu-3 [7] = experiment: as above
HepG2 [8] = experiment: as above
U2OS [9] = experiment: as above
Vero E6 [10] = experiment: as above
Caco-2 [11] = experiment: drug sensitivity score (DSS) for viability; higher = more toxic; extreme values may be limits of the assay
Calu-3 [12] = experiment: as above
HepG2 [13] = experiment: as above
U2OS [14] = experiment: as above
Vero E6 [15] = experiment: as above

Structure (SMILES)	cell viability (Caco-2 [1]; 1 nM) [%]	cell viability (Caco-2 [1]; 10 nM) [%]	cell viability (Caco-2 [1]; 100 nM) [%]	cell viability (Caco-2 [1]; 1000 nM) [%]	cell viability (Caco-2 [1]; 10000 nM) [%]	cell viability (Calu-3 [2]; 1 nM) [%]	cell viability (Calu-3 [2]; 10 nM) [%]	cell viability (Calu-3 [2]; 100 nM) [%]	cell viability (Calu-3 [2]; 1000 nM) [%]	cell viability (Calu-3 [2]; 10000 nM) [%]	cell viability (HepG2 [3]; 1 nM) [%]	cell viability (HepG2 [3]; 10 nM) [%]	cell viability (HepG2 [3]; 100 nM) [%]	cell viability (HepG2 [3]; 1000 nM) [%]	cell viability (HepG2 [3]; 10000 nM) [%]	cell viability (U2OS [4]; 1 nM) [%]	cell viability (U2OS [4]; 10 nM) [%]	cell viability (U2OS [4]; 100 nM) [%]	cell viability (U2OS [4]; 1000 nM) [%]	cell viability (U2OS [4]; 10000 nM) [%]	cell viability (Vero E6 [5]; 1 nM) [%]	cell viability (Vero E6 [5]; 10 nM) [%]	cell viability (Vero E6 [5]; 100 nM) [%]	cell viability (Vero E6 [5]; 1000 nM) [%]	cell viability (Vero E6 [5]; 10000 nM) [%]	relative viability EC50 (Caco-2 [6]) [µM]	relative viability EC50 (Calu-3 [7]) [µM]	relative viability EC50 (HepG2 [8]) [µM]	relative viability EC50 (U2OS [9]) [µM]	relative viability EC50 (Vero E6 [10]) [µM]	drug sensitivity score (Caco-2 [11])	drug sensitivity score (Calu-3 [12])	drug sensitivity score (HepG2 [13])	drug sensitivity score (U2OS [14])	drug sensitivity score (Vero E6 [15])
Oc1ccc(-c2nc3cc(O)cc(Br)c3o2)cc1	100	112	102	98.3	92.1	110	99.1	93.8	96.9	89.1	107	102	104	102	95.3	99.1	105	96.9	109	100	110	95.6	110	101	98.9	> 10	> 10	> 10	> 10	> 10	0	0	0	0	0
O=C(/C=C/c1ccc2c(c1)OCO2)N1CCCCC1 [ilepcimide]	96.3	104	106	130	102	99.5	108	106	102	102	102	97.2	106	112	103	98.2	94.6	98.3	95.8	97.1	91	98.1	94.2	96.6	97.7	> 10	> 10	> 10	> 10	> 10	0	0	0	0	0
c1cc2c(c(N3CCNCC3)c1)OCCO2 [eltoprazine]	105	97.1	106	108	101	92.4	76.5	97.7	108	107	97	101	92.2	92.4	95.7	98.4	99.6	92.9	93.6	88.2	96.5	96.5	97.9	91.9	103	> 10	> 10	> 10	> 10	> 10	0	0	0	0	0
COc1cc2c(cc1C(F)(F)F)N(C(=O)Nc1cc(F)cc(-c3cccnc3)c1)CC2	96.8	104	89.8	99	98.6	102	91.7	92.9	101	93.9	99.5	90.9	103	96.4	113	100	105	97.4	103	95.9	96.9	96.1	99.4	99.9	95.1	> 10	> 10	> 10	> 10	> 10	0	0	0	0	0
C/C(=C\C(=O)OCCCCCCCCC(=O)O)C[C@@H]1OC[C@H](C[C@@H]2O[C@H]2[C@@H](C)[C@H](C)O)[C@@H](O)[C@H]1O [mupirocin]	99.9	107	95.2	98	102	106	104	102	90.8	109	104	100	100	100	92.2	104	99.7	99.3	94.7	99.8	97	102	95.4	97.3	97.1	> 10	> 10	> 10	> 10	> 10	0	0	0	0	0
CCN1CCCC1CNC(=O)c1cc(S(=O)(=O)CC)c(N)cc1OC (stereo not given) [amisulpride]	98.8	88.6	96.7	97.1	96.1	96.4	103	99.2	104	103	104	104	94.6	99.3	102	103	99.9	102	98.5	103	98.6	106	99.4	98.5	98.8	> 10	> 10	> 10	> 10	> 10	0	0	0	0	0
CCCCCCOC(=O)CCC(=O)CN [hexaminolevulinate]	102	93.7	101	104	96.6	93.9	101	111	108	104	111	105	99	102	101	100	102	98.1	103	98.4	109	98	104	99.2	99.5	> 10	> 10	> 10	> 10	> 10	0	0	0	0	0
CCOC(=O)N[C@@H]1CC[C@@H]2[C@@H](C1)C[C@H]1C(=O)O[C@H](C)[C@H]1[C@H]2/C=C/c1ccc(-c2cccc(F)c2)cn1 [vorapaxar]	90	93.2	103	105	83	98	95	102	94.3	99.9	105	112	100	99.9	94.3	102	98.7	102	102	89.1	92.5	103	99.8	92.7	105	> 10	> 10	> 10	> 10	> 10	0.2	0	0	0	0
Cc1cc(C)c(S(=O)(=O)Nc2ccccc2C(F)(F)F)c(C)c1 [o-3M3FBS]	94.2	99.4	98.3	97.7	103	98.9	99.5	89.4	100	93.7	102	109	95.6	94.9	99.4	96.8	99.8	97.8	95.6	96.5	95.8	98.4	94.3	88.3	97.3	> 10	> 10	> 10	> 10	> 10	0	0	0	0	0
N#C[C@H](O[C@@H]1O[C@H](CO[C@@H]2O[C@H](CO)[C@@H](O)[C@H](O)[C@H]2O)[C@@H](O)[C@H](O)[C@H]1O)c1ccccc1 [amygdalin]	98.4	104	110	92.8	104	99.2	105	93.3	109	107	100	98.8	104	101	96.6	96.9	105	100	104	101	101	103	96	95.5	102	> 10	> 10	> 10	> 10	> 10	0	0	0	0	0
CON(C)C(=O)[C@H](O)[C@H](Cc1ccccc1)NC(=O)c1cc2cc(Cl)ccc2[nH]1	91.9	105	92.9	100	90.4	88.7	109	92.7	106	118	105	95.3	103	90.5	90.1	99.3	102	98.6	101	95.9	106	101	103	94.2	101	> 10	> 10	> 10	> 10	> 10	0	0	0	0	0
CCC(=O)OCC(=O)[C@@]1(OC(=O)CC)[C@@H](C)C[C@H]2[C@@H]3CCC4=CC(=O)C=C[C@]4(C)[C@@]3(Cl)[C@@H](O)C[C@@]21C [beclomethasone-dipropionate]	97.1	97.3	94.3	104	111	104	106	97	101	88.6	97.3	95.7	99.2	81.3	80.2	96.8	102	95.9	99.1	97.2	95.8	90.6	102	80.1	99.5	> 10	> 10	> 10	> 10	> 10	0	0	2.6	0	0
CC[N+](CC)(CCNC(=O)C(=O)NCC[N+](CC)(CC)Cc1ccccc1Cl)Cc1ccccc1Cl [ambenonium]	94.7	96	93.6	93.9	92.5	103	99.8	103	97.6	141	98.6	105	96.6	100	105	97.7	96.3	100	94.9	100	96.4	95.5	97.9	93.1	95.3	> 10	> 10	> 10	> 10	> 10	0	0	0	0	0
